Laboratory results reported in US6750244B2, “Compounds active at a novel site on receptor-operated calcium channels useful for treatment of neurological disorders and diseases” (NPS Pharmaceuticals, Inc., priority 1993, dated 2004).
Where “and” joins values, the source holds several entries; their conditions need not be identical. Equal entries are not always repeated. Structures can show the parent of a compound that is named as a salt. Where two headings read alike, the source gives them in different places.

Columns and labels:
NMDA receptor = test: Inhibition of NMDA/glycine-induced increases in intracellular calcium in cultured rat cerebellar granule cells (RCGC); format: cell-based
[1] = target: NMDA receptor-ionophore complex (site labeled by [3H]MK-801); test: Inhibition of [3H]MK-801 binding in rat cortical/hippocampal washed membrane preparations; settings: for IC50: read-out: IC50 (μM) vs. [3H]MK-801, rat cortical/hippocampal washed membranes
[2] = NMDA/glycine-induced increases in intracellular calcium, cultured rat cerebellar granule cells; read-out: IC50 (μM) vs. NMDA

Structure (SMILES)	IC50 (NMDA receptor; [2])	IC50 [1]	also measured
CC(C)C(NCCC(c1ccccc1)c1ccccc1)c1ccccc1 (stereo not drawn) [Compound 158]	0.351 µM	39.6 µM	–
CN(C)CCC(c1ccccc1)c1ccccn1 (stereo not drawn) [pheniramine, reference compound]	22 µM	–	–
CC(C)N(CCC(C(N)=O)(c1ccccc1)c1ccccn1)C(C)C (stereo not drawn) [disopyramide, reference compound]	> 100 µM	–	–
CN(C)C/C=C(/c1ccc(Br)cc1)c1cccnc1 [zimeldine, reference compound]	≥ 26 µM	–	–
CCC(CC)(CN)C(c1cccc(F)c1)c1cccc(F)c1 [Compound 80, 3,3-bis(3-fluorophenyl)-2,2-diethyl-1-propylamine]	28 µM	182 µM	–
Cc1ccc(C(CCN)c2cccc(F)c2)cc1 (stereo not drawn) [Compound 29, 3-(3-fluorophenyl)-3-(4-methylphenyl)-1-propylamine]	1.9 µM	5.8 µM	–
CCCC(NCCC(c1ccccc1)c1ccccc1)c1ccccc1 (stereo not drawn) [Compound 157]	0.142 µM	23.2 µM	–
COc1cccc(C(=CCN)c2cccc(OC)c2)c1 [Compound 116, 3,3-bis(3-methoxyphenyl)-prop-2-ene-1-amine]	3.6 µM and 4.47 µM	–	–
NCCCC(c1ccccc1)c1ccccc1 [Compound 70, 4,4-diphenylbutylamine]	1.7 µM	–	–
NCCC(c1cccc(F)c1)c1cc(F)cc(F)c1 (stereo not drawn) [Compound 96, 3-(3,5-difluorophenyl)-3-(3-fluorophenyl)-1-propylamine]	0.187 µM	1.1 µM	–
NCCC1c2ccccc2Sc2ccccc21 [Compound 183]	0.676 µM	5.01 µM	–
NCC[C@H](Oc1cccc(F)c1)c1ccccc1 [Compound 186]	0.155 µM	0.123 µM	–
C[C@H](NCCC(c1ccccc1)c1ccccc1)c1ccccc1 [(S)-fendiline, reference compound]	0.686 µM	–	–
Cc1c(F)cccc1C(CCN)c1cccc(F)c1 (stereo not drawn) [Compound 56, 3-(3-fluorophenyl)-3-(2-methyl-3-fluorophenyl)-1-propylamine]	0.218 µM	0.955 µM	–
CCNC[C@H](C)C(c1cccc(F)c1)c1cccc(F)c1 [Compound 39]	0.251 µM	2.9 µM	–
NCC(c1cccc(F)c1)c1cccc(F)c1 [Compound 98, 2,2-bis(3-fluorophenyl)-1-ethylamine]	7.9 µM	52.5 µM	–
CN(C)CCN(Cc1ccc(Cl)cc1)c1ccccn1 [chloropyramine, reference compound]	76 µM	–	–
Fc1cccc(C(c2cccc(F)c2)C2CCNC2)c1 (stereo not drawn) [Compound 102]	1.01 µM	3.3 µM	–
Cc1ccccc1OC(CCN)c1ccccc1 (stereo not drawn) [Compound 177]	–	0.754 µM	–
NCCCc1ccccc1Cc1ccccc1 [Compound 127]	1.2 µM	17.5 µM	–
CN(CCC(c1cccc(F)c1)c1cccc(F)c1)Cc1ccccc1 [Compound 105]	1.03 µM	> 3 µM	–
Cc1ccccc1C(CCN)c1ccccc1C [Compound 65, 3,3-bis(2-methylphenyl)-1-propylamine]	0.167 µM	2 µM	–
CCC(NCCC(c1ccccc1)c1ccccc1)c1ccccc1OC (racemic) [Compound 167, (R,S)-N-1-(2-methoxyphenylpropyl)-3,3-diphenylpropylamine]	0.08 µM	14.5 µM	–
NCCCC(c1cccc(F)c1)c1cccc(F)c1 [Compound 100, 4,4-bis(3-fluorophenyl)-1-butylamine]	0.602 µM	3.2 µM	–

Structure (SMILES)	IC50 (NMDA receptor; [2])	IC50 [1]	also measured
COc1ccccc1C(CCN)c1ccccc1OC [Compound 62, 3,3-bis(2-methoxyphenyl)-1-propylamine]	0.177 µM	0.617 µM	–
CCC(CCN)(c1cccc(F)c1)c1cccc(F)c1 [Compound 82, 3,3-bis(3-fluorophenyl)-3-ethyl-1-propylamine]	0.106 µM	0.794 µM	–
CNCCC(c1ccccc1)c1ccccc1 [Compound 67, N-methyl-3,3-diphenylpropylamine]	11 µM	2.9 µM	–
NCC(c1ccc(F)cc1)c1ccc(F)cc1 [Compound 99]	> 100 µM	105 µM	–
NCCC1c2ccccc2CCc2ccc(F)cc21 (stereo not drawn) [Compound 197, 3-Fluoro-10,11-dihydro-5-(2-aminoethyl)-5H-dibenzo[a,d]cycloheptene hydrochloride]	–	0.053 µM	–
NCCCOCCCCOCCCNC(=O)Cc1cc(Br)ccc1O [Compound 15]	4.9 µM	–	–
NCC(c1ccccc1)c1ccccc1 [2,2-diphenylethylamine, reference compound]	24.5 µM	–	–
NCCC(c1ccc(F)cc1)c1ccc(F)cc1 [Compound 77, 3,3-bis(4-fluorophenyl)-1-propylamine]	5.5 µM	–	–
CN(C)CCC(c1ccc(Br)cc1)c1ccccn1 (stereo not drawn) [brompheniramine, reference compound]	138 µM	–	–
CNCCCN1c2ccccc2CCc2ccccc21 [desipramine, reference compound]	–	3.26 µM	–
NCCC(c1ccc(F)cc1)c1ccccc1F (stereo not drawn) [Compound 76, 3-(2-fluorophenyl)-3-(4-fluorophenyl)-1-propylamine]	0.73 µM	–	–
NCCc1ccccc1Cc1ccc(F)cc1 [Compound 131]	1.23 µM	–	–
OC(CCN1CCCCC1)(c1ccccc1)c1ccccc1 [pridinol, reference compound]	10.7 µM	–	–
CN(C)CCOC(C)(c1ccccc1)c1ccccn1 (stereo not drawn) [doxylamine, reference compound]	62 µM	–	–
CC(C)[N+](C)(CCC(C(N)=O)(c1ccccc1)c1ccccc1)C(C)C [isopropamide, reference compound]	87 µM	–	–
NCCC1c2ccccc2CCc2c(F)cccc21 (stereo not drawn) [Compound 196]	–	2.24 µM	–
OC(CCN1CCCCC1)(c1ccccc1)C1CCCCC1 (stereo not drawn) [trihexyphenidyl, reference compound]	5.13 µM	–	–
NCCC1c2cc(F)ccc2CCc2ccc(F)cc21 [Compound 195, 3,7-Difluoro-10,11-dihydro-5-(2-aminoethyl)-5H-dibenzo[a,d]cycloheptene hydrochloride]	–	0.029 µM	–
CN(C)CCC(c1ccc(Cl)cc1)c1ccccn1 (stereo not drawn) [chlorpheniramine, reference compound]	> 100 µM	–	–
CN(C)CCCN1c2ccccc2Sc2ccc(Cl)cc21 [Chlorpromazine, reference compound]	–	11.2 µM	–
NCCC(c1ccccc1)C1CCCCC1 (stereo not drawn) [Compound 75]	0.94 µM	–	–
NCCCCC(c1ccccc1)c1ccccc1 [Compound 71, 5,5-diphenylpentylamine]	6.35 µM and 6.4 µM	–	–
NCCc1ccccc1Cc1ccccc1F [Compound 129]	1.26 µM	–	–
C[C@@H](NCCC(c1ccccc1)c1ccccc1)c1ccccc1 [(R)-fendiline, reference compound]	0.719 µM	–	–

Structure (SMILES)	IC50 (NMDA receptor; [2])	IC50 [1]	also measured
NCCC1c2cccc(F)c2CCc2c(F)cccc21 [Compound 193]	–	–	activity vs. [3H]MK-801 binding ([1]; @ 1 μM): inactive @ 1 μM
COc1cccc(/C(=C\CN)c2cccc(Cl)c2)c1 [Compound 143]	2.82 µM	–	–
CC(C)NCCC(c1ccccc1)c1ccccc1 [Compound 72, N-isopropyl-3,3-diphenylpropylamine]	7.4 µM	–	–
NCCc1ccccc1Cc1cccc(F)c1 [Compound 130]	0.851 µM	–	–
CN(C)CCC(c1ccccc1)c1ccccc1 [Compound 73, N,N-dimethyl-3,3-diphenylpropylamine]	12.6 µM	–	–
CN(C)CCCN1c2ccccc2CCc2ccccc21 [Imipramine, reference compound]	–	6.75 µM	–
COc1ccccc1OC(CCN)c1ccccc1 (stereo not drawn) [Compound 178]	–	1.25 µM	–
CCNCCC(c1ccccc1)c1ccccc1 [Compound 68, N-ethyl-3,3-diphenylpropylamine]	2.9 µM	–	–
NCC[C@H](c1cccc(F)c1)c1ccc(O)c(F)c1 (racemic) [Compound 175, (R,S)-3-(3-Fluoro-4-hydroxy)-3-(3-fluorophenyl)propylamine maleate]	–	5.1 µM	–
CN(C)CCC=C1c2ccccc2C=Cc2ccccc21 [Cyclobenzaprine, reference compound]	–	14.5 µM	–
CN(C)CCC(Oc1ccc2c(c1)CCCC2)c1ccc(C#N)cc1 (stereo not drawn) [Novo-Nordisk compound^d, reference compound]	28.8 µM	–	–
CNCCC(c1cccc(F)c1)c1ccc(O)c(F)c1 (racemic) [Compound 176, (R,S)-N-Methyl-3-(3-fluoro-4-hydroxy)-3-(3-fluorophenyl)propyl amine hydrochloride]	–	10 µM	–
CNCCC(c1cccc(F)c1)c1ccc(OC)c(F)c1 (racemic) [Compound 174, (R,S)-N-Methyl-3-(3-fluoro-4-methoxy)-3-(3-fluorophenyl)propyl amine maleate]	–	57 µM	–
CCN(CC)CCC(c1ccccc1)c1ccccc1 [Compound 74, N,N-diethyl-3,3-diphenylpropylamine]	27.5 µM	–	–
CN1CCN(C(c2ccccc2)c2ccc(Cl)cc2)CC1 (stereo not drawn) [chlorcyclizine, reference compound]	~10 µM	–	–
CN(C)CCC=C1c2ccccc2CCc2ccccc21 [Amitriptyline, reference compound]	–	14.2 µM	–
NCCC(c1cccc(C(F)(F)F)c1)c1cccc(C(F)(F)F)c1 [Compound 78, 3,3-bis[3-(trifluoromethyl)phenyl]-1-propylamine]	–	–	IC50 (NMDA receptor; read-out: IC50 (μM) vs. NMDA; NMDA/glycine-induced increases in intracellular calcium, cultured rat cerebellar granule cells): 10.2 µM
Cc1cccc(C)c1NC(=O)CN1CCN(CCCC(c2ccc(F)cc2)c2ccc(F)cc2)CC1 [lidoflazine, reference compound]	> 30 µM	–	–
NCCC1c2cc(F)ccc2CCc2c(F)cccc21 (stereo not drawn) [Compound 194]	–	0.371 µM	–
O=c1[nH]c2ccccc2n1C1CCN(CCCC(c2ccc(F)cc2)c2ccc(F)cc2)CC1 [pimozide, reference compound]	> 10 µM	–	–
CN1CCN(C(c2ccccc2)c2ccccc2)CC1 [cyclizine, reference compound]	28 µM	–	–
COc1ccc(C(CC(C)N)c2ccccc2)cc1 (stereo not drawn) [Astra compound, reference compound]	> 30 µM	–	–
